Experimental data reported in paper PMC10288273, “Allosteric Activation of Transglutaminase 2 via Inducing an “Open” Conformation for Osteoblast Differentiation” (Advanced Science, 2023).

Target: T1, TGM2 (in MC3T3-E1 cells) (Mus musculus, UniProt P21981)
T1 construct: native full-length protein in MC3T3-E1 pre-osteoblast cells
T1 sequence (P21981 2-686): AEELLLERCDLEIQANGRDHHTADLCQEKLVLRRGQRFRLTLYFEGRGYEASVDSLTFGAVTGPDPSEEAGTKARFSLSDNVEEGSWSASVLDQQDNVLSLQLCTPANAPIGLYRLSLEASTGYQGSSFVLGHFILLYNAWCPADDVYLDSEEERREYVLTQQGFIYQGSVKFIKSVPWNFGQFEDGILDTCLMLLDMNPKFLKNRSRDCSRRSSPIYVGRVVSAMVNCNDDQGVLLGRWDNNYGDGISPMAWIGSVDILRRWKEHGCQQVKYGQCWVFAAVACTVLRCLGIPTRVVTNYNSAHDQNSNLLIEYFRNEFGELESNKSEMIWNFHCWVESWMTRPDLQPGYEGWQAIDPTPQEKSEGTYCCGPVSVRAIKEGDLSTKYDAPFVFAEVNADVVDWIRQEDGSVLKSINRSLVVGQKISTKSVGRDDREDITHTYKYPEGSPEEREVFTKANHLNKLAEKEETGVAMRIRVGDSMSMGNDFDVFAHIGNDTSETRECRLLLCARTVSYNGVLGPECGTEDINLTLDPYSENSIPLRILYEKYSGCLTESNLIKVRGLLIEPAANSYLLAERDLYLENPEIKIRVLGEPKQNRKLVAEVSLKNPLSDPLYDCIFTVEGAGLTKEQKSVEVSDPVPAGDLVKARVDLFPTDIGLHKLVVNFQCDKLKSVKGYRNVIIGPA
Test: CETSA; DARTS
Type: cell-based

C=C[C@@]1(C)CC(=O)[C@]2(O)[C@@]3(C)[C@@H](O)CCC(C)(C)[C@@H]3[C@H](O)[C@H](OC(C)=O)[C@@]2(C)O1 [Forskolin]
thermal stabilisation (CETSA): FSK enhanced the thermal stability of TGM2
